The structures appear in SMILES notation.

The test system of this assay is atherogenic lesions of the right femoral artery (arteriosclerosis). The assay is described as follows: Atherogenic lesions in cholesterol diet-loaded rabbits with Nylon thread-induced chronic endothelial damage (right femoral artery). The assay is classed as in vivo, male New Zealand White rabbits. Particulars: oral, 8 weeks. The method, then: A test was conducted in which male New Zealand White rabbits (body weights: 1.0 to 1.5 kg) were loaded for 10 weeks with a cholesterol diet (0.5% cholesterol, 3% peanut oil and 3% coconut oil) in the amounts indicated below. The animals were fed 40 g for the first two weeks, 50 g for the next four weeks, and 60 g for the final four weeks. Two weeks after cholesterol diet loading, a Nylon thread was aseptically inserted from the right femoral artery to the vicinity of the diaphragm to induce chronic endothelial damage in the abdominal aorta and right femoral artery. The Nylon thread was immobilized for 8 weeks at the insertion site. Following surgery to insert the Nylon thread, the animals were grouped so that the average values of serum total cholesterol, triglycerides, platelet aggregation and body weight of each group were nearly equal, followed by oral administration of the ADP receptor antagonist and the ACAT inhibitor either alone or combined. After necrotomy of the animals 8 weeks after administration, the right femoral arteries were excised and the ratio of the surface area covered by atherogenic lesions was calculated. After exposing the right femoral artery (by 1 cm from the branch of the iliac artery), it was photographed with a digital camera (COOLPX990, Nikon) followed by measurement of the surface area of the lumen and the surface area covered by atherogenic lesions using an image analyzer, and calculation of the ratio of the surface area covered by atherogenic lesions relative to the surface area of the aorta lumen as a percentage. In addition, a section 1 cm from the branch of the iliac artery on the side of the femoral artery was cut out and after fixing in methanol-carnoy solution, was embedded in a paraffin block. After slicing into thin sections, the sections were immunostained using Elastica-Masson stain and anti-human α-actin antibody (1A4) followed by calculating the degree of medial intimal thickness and the smooth muscle cell occupancy rate using an image analyzer. In the table, Compound A represent 2-acetoxy-5-(α-cyclopropylcarbonyl-2-fluorobenzyl)-4,5,6,7-tetrahydrothieno[3,2-c]pyridine, and Compound B represents sulfate of N-(1-octyl-5-carboxymethyl-4,6-dimethylindolin-7-yl)-2,2-dimethylpropanamide.

On to `CCCCCCCCN1CCc2c(C)c(CC(=O)O)c(C)c(NC(=O)C(C)(C)C)c21.O=S(=O)(O)O` [Compound B, sulfate of N-(1-octyl-5-carboxymethyl-4,6-dimethylindolin-7-yl)-2,2-dimethylpropanamide], for which, for the setting “Compound B 3 mg/kg”, the “Medial intimal thickness (%)” value was 60.0 ± 34.2 %, the “Ratio of lesion surface area (%)” value is listed as 40.6 ± 19.8 % and the “Smooth muscle cell occupancy rate (%)” value is 25.6 ± 14.8 %.

For the molecule `CC(=O)Oc1cc2c(s1)CCN(C(C(=O)C1CC1)c1ccccc1F)C2` (stereo not drawn) [Compound A, 2-acetoxy-5-(α-cyclopropylcarbonyl-2-fluorobenzyl)-4,5,6,7-tetrahydrothieno[3,2-c]pyridine], under “Compound A 1 mg/kg”, the “Medial intimal thickness (%)” value was determined as 275.4 ± 153.4% and the “Ratio of lesion surface area (%)” value is 47.2 ± 14.2%. The same molecule displayed a Smooth muscle cell occupancy rate in lesion at 1 mg/kg (Oryctolagus cuniculus, 1344 h, Compound A 1 mg/kg) of 5.5 ± 1.5%.

These data come from US20050192245A1, “Medicinal composition for treating arteriosclerosis” (SANKYO COMPANY, LIMITED, priority 2002, published 2005).
